Source: PubChem BioAssay AID504792 (Sanford-Burnham Center for Chemical Genomics, 2011)
Active and inactive are the calls of the source.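 The calls were made as follows: active = IC50 at or below 20 µM; inactive = the rest.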

Target: Glucose-6-phosphate 1-dehydrogenase (Homo sapiens) (UniProt P11413)
Assay: inhibition of Homo sapiens G6PD, dose series – biochemical, fluorescence, selectivity assay for P. falciparum G6PD inhibitor project, dose response (AID 504792)
Settings: human G6PD enzyme, NADPH resazurin-diaphorase fluorescence

Sequence of Glucose-6-phosphate 1-dehydrogenase (Homo sapiens) (P11413 whole entry, looked up): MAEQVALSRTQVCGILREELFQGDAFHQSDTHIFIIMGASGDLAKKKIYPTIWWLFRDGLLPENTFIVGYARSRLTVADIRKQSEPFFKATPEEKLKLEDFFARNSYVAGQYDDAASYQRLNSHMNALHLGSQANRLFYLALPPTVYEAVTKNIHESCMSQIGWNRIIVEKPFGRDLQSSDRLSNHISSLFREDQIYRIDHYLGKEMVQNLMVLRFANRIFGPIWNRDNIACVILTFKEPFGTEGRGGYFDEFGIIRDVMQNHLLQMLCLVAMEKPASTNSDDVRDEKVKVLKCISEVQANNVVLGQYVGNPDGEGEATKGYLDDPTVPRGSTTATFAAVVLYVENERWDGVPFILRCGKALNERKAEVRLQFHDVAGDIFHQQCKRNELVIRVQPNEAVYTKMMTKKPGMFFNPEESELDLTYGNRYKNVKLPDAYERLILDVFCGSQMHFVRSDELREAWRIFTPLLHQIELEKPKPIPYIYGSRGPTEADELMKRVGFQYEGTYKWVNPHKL

IC50: > 80 µM (inactive)
Structure (SMILES): C[c-]1[c-](C)[c-](C)[c-](C)[c-]1C.[Fe].c1cc2nccc(N3CCCC3)[c-]2c1 (stereo unspecified)
